Results as given in ChEMBL document CHEMBL1681695, “Chroman and tetrahydroquinoline ureas as potent TRPV1 antagonists” (Bioorg Med Chem Lett, 2011).

Assays:
[1] = target: Transient receptor potential cation channel subfamily V member 1 (Homo sapiens, UniProt Q8NER1); assay: Antagonist activity at human TRPV1 assessed as inhibition of calcium influx; format: functional
[2] = Ratio of drug uptake in brain to plasma in rat; format: ADME
[3] = test system: Rattus norvegicus; assay: Analgesic activity in rat assessed as inhibition of MIA-induced osteoarthritis pain at 30 umol/kg, po; format: functional
[4] = test system: Rattus norvegicus; assay: Analgesic activity in rat assessed as inhibition of capsaicin-induced acute pain at 30 umol/kg, po; format: functional
[5] = test system: Rattus norvegicus; assay: Antihyperalgesic activity in po dosed rat assessed as inhibition of CFA-induced hyperalgesia; format: functional
[6] = test system: Rattus norvegicus; assay: Antihyperalgesic activity in po dosed rat assessed as inhibition of carrageenan-induced hyperalgesia; format: functional
[7] = target: CYP3A4 (Homo sapiens, UniProt P08684); assay: Inhibition of CYP3A4 at 10 uM; format: ADME
CYP3A4, sequence (P08684 whole entry): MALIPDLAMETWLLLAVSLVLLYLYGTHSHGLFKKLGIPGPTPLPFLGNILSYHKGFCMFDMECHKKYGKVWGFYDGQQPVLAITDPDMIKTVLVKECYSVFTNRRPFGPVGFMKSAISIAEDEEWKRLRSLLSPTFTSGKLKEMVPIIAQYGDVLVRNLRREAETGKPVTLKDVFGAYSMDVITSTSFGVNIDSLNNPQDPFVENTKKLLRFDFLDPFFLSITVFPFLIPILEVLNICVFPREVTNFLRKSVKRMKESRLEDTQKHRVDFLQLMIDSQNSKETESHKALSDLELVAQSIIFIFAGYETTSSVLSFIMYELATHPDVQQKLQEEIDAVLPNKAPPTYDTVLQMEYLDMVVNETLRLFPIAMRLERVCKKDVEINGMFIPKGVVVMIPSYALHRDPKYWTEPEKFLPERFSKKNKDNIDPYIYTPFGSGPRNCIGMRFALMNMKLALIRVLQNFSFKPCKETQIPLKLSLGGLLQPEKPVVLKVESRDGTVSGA

Transient receptor potential cation channel subfamily V member 1, sequence (Q8NER1 whole entry): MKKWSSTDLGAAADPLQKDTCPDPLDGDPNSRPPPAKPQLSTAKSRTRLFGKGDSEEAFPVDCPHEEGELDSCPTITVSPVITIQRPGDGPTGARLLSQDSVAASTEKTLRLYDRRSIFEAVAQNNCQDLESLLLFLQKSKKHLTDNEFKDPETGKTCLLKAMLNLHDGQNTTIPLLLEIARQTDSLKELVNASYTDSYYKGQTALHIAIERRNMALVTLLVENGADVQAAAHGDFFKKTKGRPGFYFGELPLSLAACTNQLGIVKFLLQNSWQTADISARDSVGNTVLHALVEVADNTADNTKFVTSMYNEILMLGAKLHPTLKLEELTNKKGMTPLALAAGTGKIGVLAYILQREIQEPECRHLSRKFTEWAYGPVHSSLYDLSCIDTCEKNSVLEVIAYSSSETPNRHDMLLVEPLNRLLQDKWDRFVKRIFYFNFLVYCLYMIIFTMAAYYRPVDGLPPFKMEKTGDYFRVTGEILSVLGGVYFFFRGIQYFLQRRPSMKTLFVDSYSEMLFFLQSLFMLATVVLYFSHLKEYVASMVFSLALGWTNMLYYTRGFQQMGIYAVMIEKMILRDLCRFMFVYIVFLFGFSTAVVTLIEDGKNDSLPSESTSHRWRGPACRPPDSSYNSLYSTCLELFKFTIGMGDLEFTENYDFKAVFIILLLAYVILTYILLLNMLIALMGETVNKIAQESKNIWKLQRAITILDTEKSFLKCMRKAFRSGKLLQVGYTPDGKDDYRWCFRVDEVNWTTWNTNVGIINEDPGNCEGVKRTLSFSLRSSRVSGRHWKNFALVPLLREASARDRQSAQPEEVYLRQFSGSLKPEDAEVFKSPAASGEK

SMILES | IC50 [1] | further results
CN1CCC(NC(=O)Nc2cccc3[nH]ncc23)c2cc(C(C)(C)C)ccc21 (stereo unspecified) | 853 nM | 
O=C(Nc1cccc2[nH]ncc12)NC1CCOc2c(C3CCCCC3)cccc21 (stereo unspecified) | 15 nM | 
O=C(Nc1cccc2[nH]ncc12)NC1CCOc2c1cccc2N1CCOCC1 (stereo unspecified) | 110 nM | 
O=C(Nc1cccc2[nH]ncc12)NC1CCOc2cc(OC(F)(F)F)ccc21 (stereo unspecified) | 8 nM | 
CC(C)(C)c1ccc2c(c1)OCCC2NC(=O)Nc1cccc2[nH]ncc12 (stereo unspecified) | 43 nM | 
O=C(Nc1cccc2[nH]ncc12)NC1CCOc2c1cccc2C(F)(F)F (stereo unspecified) | 5 nM | 
O=C(Nc1cccc2[nH]ncc12)NC1CCOc2c(OC(F)(F)F)cccc21 (stereo unspecified) | 5 nM | 
CC(C)(C)c1cccc2c1OCCC2NC(=O)Nc1cccc2[nH]ncc12 (stereo unspecified) | 5 nM | Kp [2]: 0.42; inhibition in vivo at 30 µmol/kg [3]: 56%; inhibition in vivo at 30 µmol/kg [4]: 89%; ED50 [5]: 15 µmol/kg; ED50 [6]: 10 µmol/kg
O=C(Nc1cccc2[nH]ncc12)NC1CCOc2c1cccc2N1CCCCC1 (stereo unspecified) | 16 nM | 
Cc1ccc2c(c1)C(NC(=O)Nc1cccc3[nH]ncc13)CCO2 (stereo unspecified) | 933 nM | 
O=C(Nc1cccc2[nH]ncc12)NC1CCOc2ccc(F)cc21 (stereo unspecified) | 718 nM | 
O=C(Nc1cccc2[nH]ncc12)NC1CCOc2ccccc21 (stereo unspecified) | 234 nM | 
CN1CCC(NC(=O)Nc2cccc3[nH]ncc23)c2ccccc21 (stereo unspecified) | 215 nM | inhibition at 10 µM [7]: 65%
CN1CCC(NC(=O)Nc2cccc3[nH]ncc23)c2ccc(F)cc21 (stereo unspecified) | 34 nM | inhibition at 10 µM [7]: 66%
CN1CCC(NC(=O)Nc2cccc3[nH]ncc23)c2cccc(C(C)(C)C)c21 (stereo unspecified) | 6 nM | 
CN1CCC(NC(=O)Nc2cccc3[nH]ncc23)c2ccc(C(C)(C)C)cc21 (stereo unspecified) | 115 nM | 
COc1ccc2c(c1)C(NC(=O)Nc1cccc3[nH]ncc13)CCN2C (stereo unspecified) | 1380 nM | inhibition at 10 µM [7]: 59%
O=C(Nc1cccc2[nH]ncc12)NC1CCN(Cc2ccccc2)c2ccccc21 (stereo unspecified) | 70 nM | inhibition at 10 µM [7]: 94%
O=C(Nc1cccc2[nH]ncc12)NC1CCN(Cc2ccccc2)c2ccc(F)cc21 (stereo unspecified) | 66 nM | 
CC(C)(C)c1ccc2c(c1)C(NC(=O)Nc1cccc3[nH]ncc13)CCN2Cc1ccccc1 (stereo unspecified) | 121 nM | 
COc1ccc2c(c1)C(NC(=O)Nc1cccc3[nH]ncc13)CCN2Cc1ccccc1 (stereo unspecified) | 160 nM | inhibition at 10 µM [7]: 97%
COc1ccc2c(c1)C(NC(=O)Nc1cccc3[nH]ncc13)CCN2CC1CCCCC1 (stereo unspecified) | 196 nM | inhibition at 10 µM [7]: 93%
CC(C)CCN1CCC(NC(=O)Nc2cccc3[nH]ncc23)c2cccc(Cl)c21 (stereo unspecified) | 11 nM | 
O=C(Nc1cccc2[nH]ncc12)N[C@@H]1CCOc2cc(C(F)(F)F)ccc21 | 4 nM | 
O=C(Nc1cccc2[nH]ncc12)N[C@H]1CCOc2cc(C(F)(F)F)ccc21 | 43 nM | 
CC(C)(C)c1ccc2c(c1)OCC[C@H]2NC(=O)Nc1cccc2[nH]ncc12 | 31 nM | 
CC(C)(C)c1ccc2c(c1)OCC[C@@H]2NC(=O)Nc1cccc2[nH]ncc12 | 1200 nM | 
CC(C)(C)c1cccc2c1OCC[C@H]2NC(=O)Nc1cccc2[nH]ncc12 | 3 nM | 
CC(C)(C)c1cccc2c1OCC[C@@H]2NC(=O)Nc1cccc2[nH]ncc12 | 19 nM | 
CN1CCC(NC(=O)Nc2cccc3[nH]ncc23)c2ccc(C(F)(F)F)cc21 (stereo unspecified) |  | inhibition at 10 µM [7]: 47%
